Measurements as given in patent US20120128646A1, “METHODS AND COMPOSITIONS FOR THE TREATMENT OF AUTOIMMUNE DISEASE” (priority 2009, published 2012).
“Also recorded” adds a separate entry of the source. Where no end group is shown, it is not given here.

Columns and labels:
T cell clone BDC-2.5 = test: IFNγ production by T cell clone in antigen assay (ELISA); format: cell-based, NOD mouse; details: peptide or preparation as antigen
Description: The T cell clones are maintained in culture by periodic re-stimulation with irradiated NOD splenocytes and islet cells or β-membrane. To assay for antigen, resting responder T cells (i.e., for example, the cells at the end of the two-week restimulation period) are co-cultured for 24 hr with elicited peritoneal macrophages (PEC) as APC and either a test sample or control antigen. Control antigen will be in the form of islet cells or the whole-cell membrane fraction (i.e., for example, a β-membrane fraction). As described above, unlysed β-membrane is stored in aliquots at −80° C. for this purpose. Negative controls include responder cells alone and responders plus APC.
At the end of the culture period, supernatants are collected from the cultures and IFNγ production is measured by ELISA. Wells positive for IFNγ are indicative of T cells responding to antigen; the amount of cytokine produced is calculated from a standard curve and is directly proportional to the amount of antigen present.
Antigenicity of islet cells, cellular and biochemical fractions, peptides, or insect cells expressing IA^g7-peptide constructs, was assessed through responses of T cell clones or hybridomas made by fusing T cell clones to the TCR^− version of T cell lymphoma, BW5147. White et al., “Two better cell lines for making hybridomas expressing specific T cell receptors” J Immunol 143:1822-1825 (1989). T cell clone cultures typically contained 2×10^4 responder T cells, 2.5×10^4 NOD peritoneal exudate cells (PEC) as APC, and antigen (SEC/IEX fractions, peptides, islet cells); all assays were performed with β-Mem as a positive control. IFNγ was measured by ELISA of culture supernatants. For cultures with T cell hybridomas, antigen/MHC activation was assessed by IL-2 production measured by a bioassay using the HT-2 T cell line. Walker et al., “Antigenspecific. I region-restricted interactions in vitro between tumor cell lines and T cell hybridomas” J Immunol 128:2164-2169 (1982). Synthetic peptides were either produced in the Molecular Resource Center at National Jewish Health or obtained from CHI Scientific, Maynard, Mass.

BDC-2.5 T cell hybridoma = test: CD69 upregulation on T cell hybridoma co-cultured with insect cells infected with linked peptide I-A^g7 viruses; format: cell-based, mouse; details: hybridomas 3 × 10^5/mL, 3 hrs co-culture with infected insect cells 1 × 10^5/mL
Method: (§1) FIG. 13F: The p3 glycine of pS3 was mutated to other amino acids. The effect of the mutations on early activation of the three BDC hybridomas was assessed by CD69 induction. The results are shown as the percent of cells expressing CD69 relative to those activated with the unmutated pS3 peptide. […] The sequences of the pS3 and ChgA peptide are also shown, highlighting the amino acids at the p3 position.
(§2) A mutational analysis was performed of 3 L mimotope at positions 2 and 3 followed by their respective ability to stimulate BDC-2.5, BDC-10.1 and BDC-5.10.3 hybridomas with 3 L mimotope substituted peptides. See, Table 3.

[1] = test system: BDC-10.1 T cell hybridoma; test: as above; format: cell-based, mouse; details: hybridomas 3 × 10^5/mL, 3 hrs co-culture with infected insect cells 1 × 10^5/mL
Method: as §1, §2

[2] = test system: BDC-5.10.3 T cell hybridoma; test: as above; format: cell-based, mouse; details: hybridomas 3 × 10^5/mL, 3 hrs co-culture with infected insect cells 1 × 10^5/mL
Method: as §1, §2

soluble IA^g7 = test: Peptide binding to IA^g7: competition with biotinylated HEL peptide; set-up: species or system NOD mouse; details: competition with biotinylated pHEL 11 μM, pH 5.6, overnight
Description: FIG. 15B: A series of ChgA peptides tested for their ability to compete with a biotinylated HEL peptide for binding to soluble IA^g7. pS3-positive control peptide. IE^k moth cytochrome c-negative control peptide. N=2. Y axis: Percent of IA^g7-bound biotinylated HEL peptide as compared to IE^k. X axis: Log concentration of inhibitor peptide.
In order to confirm the unique binding register of the WE14 peptide, a series of peptides comprising N-terminal extensions and/or C-terminal deletions of WE14 were evaluated for their ability to stimulate the BDC-2.5 T cell clone (FIG. 6a) or to bind to IA^g7. See, FIG. 15A. […] See, FIG. 15B. Further, a pS3 mimotope was used as the positive control peptide and an irrelevant peptide from moth cytochrome c, pMCC, was the negative control peptide. The data were analyzed to determine the stimulatory or binding capacity of the peptides relative to WE14. See, FIG. 15C.
Soluble IA^g7 with covalently attached pHEL was treated with thrombin to cleave the linker attaching the peptide to the IA^g7 β chain. Kozono et al., “Production of soluble MHC class II proteins with covalently bound single peptides” Nature 369:151-154 (1994). Samples (0.5 μg) were incubated with a soluble biotinylated version of pHEL, Biotin-GGGMKRHGLDNYRGYSL (SEQ ID NO: 56) (11 μM), either alone or in the presence of various concentrations of potential competitors peptides, in 15 μL of pH 5.6 buffer overnight at room temperature. The sample was diluted to 100 μL of PBS in a well of a 96-well ELISA plate coated with an anti-IA^g7 monoclonal antibody, OX-6 (BD Pharmaceuticals). The captured IA^g7 was washed several times with PBS and the bound bio-pHEL detected with alkaline phosphatase coupled Extravadin (Sigma) and […].

## WSRMD [WD5, shortest C-terminal truncation of WE14, motif only]
T cell clone BDC-2.5
  Stimulation of T cell clone BDC-2.5 (IFNγ response), result in words: decreasing stimulatory activity; also recorded: lacked any activity at all

## SRLGLWVRME
BDC-2.5 T cell hybridoma
  Stimulation BDC-2.5 (upregulation of CD69): + (A positive response (+) indicates >40% of the hybridoma population stained above a background staining of 1% for unstimulated or of the same T cell hybridoma)
[1]
  Stimulation BDC-10.1 (upregulation of CD69): + (A positive response (+) indicates >40% of the hybridoma population stained above a background staining of 1% for unstimulated or of the same T cell hybridoma)
[2]
  Stimulation BDC-5.1.3 (upregulation of CD69): + (A positive response (+) indicates >40% of the hybridoma population stained above a background staining of 1% for unstimulated or of the same T cell hybridoma)

## Enz: WE14 after transglutaminase modification (WSRMDQLAKELTAE; also: transglutaminase modification, site not given here)
T cell clone BDC-2.5
  Stimulation of T cell clone BDC-2.5 (IFNγ response), result in words: highly antigenic

## SRLCLWVRME
BDC-2.5 T cell hybridoma
  Stimulation BDC-2.5 (upregulation of CD69): + (A positive response (+) indicates >40% of the hybridoma population stained above a background staining of 1% for unstimulated or of the same T cell hybridoma)
[2]
  Stimulation BDC-5.1.3 (upregulation of CD69): + (A positive response (+) indicates >40% of the hybridoma population stained above a background staining of 1% for unstimulated or of the same T cell hybridoma)

## EDKRWSRMDQLAKELTAE [EE18, WE14 extended by 4 amino acids (EDKR)]
T cell clone BDC-2.5
  Stimulation of T cell clone BDC-2.5 (IFNγ response), result in words: virtually eliminated
Soluble IA^g7
  IA^g7 binding, result in words: no effect

## WA8: sequential C-terminal truncation of WE14 (WSRMDQLA)
T cell clone BDC-2.5
  Stimulation of T cell clone BDC-2.5 (IFNγ response), result in words: decreasing stimulatory activity

## SRLSLWVRME
BDC-2.5 T cell hybridoma
  Stimulation BDC-2.5 (upregulation of CD69): + (A positive response (+) indicates >40% of the hybridoma population stained above a background staining of 1% for unstimulated or of the same T cell hybridoma)
[1]
  Stimulation BDC-10.1 (upregulation of CD69): + (A positive response (+) indicates >40% of the hybridoma population stained above a background staining of 1% for unstimulated or of the same T cell hybridoma)
[2]
  Stimulation BDC-5.1.3 (upregulation of CD69): + (A positive response (+) indicates >40% of the hybridoma population stained above a background staining of 1% for unstimulated or of the same T cell hybridoma)

## SRLTLWVRME
BDC-2.5 T cell hybridoma
  Stimulation BDC-2.5 (upregulation of CD69): + (A positive response (+) indicates >40% of the hybridoma population stained above a background staining of 1% for unstimulated or of the same T cell hybridoma)
[1]
  Stimulation BDC-10.1 (upregulation of CD69): + (A positive response (+) indicates >40% of the hybridoma population stained above a background staining of 1% for unstimulated or of the same T cell hybridoma)
[2]
  Stimulation BDC-5.1.3 (upregulation of CD69): + (A positive response (+) indicates >40% of the hybridoma population stained above a background staining of 1% for unstimulated or of the same T cell hybridoma)

## SRLVLWVRME
[1]
  Stimulation BDC-10.1 (upregulation of CD69): + (A positive response (+) indicates >40% of the hybridoma population stained above a background staining of 1% for unstimulated or of the same T cell hybridoma)
[2]
  Stimulation BDC-5.1.3 (upregulation of CD69): + (A positive response (+) indicates >40% of the hybridoma population stained above a background staining of 1% for unstimulated or of the same T cell hybridoma)

## SRLALWVRME
BDC-2.5 T cell hybridoma
  Stimulation BDC-2.5 (upregulation of CD69): + (A positive response (+) indicates >40% of the hybridoma population stained above a background staining of 1% for unstimulated or of the same T cell hybridoma)
[1]
  Stimulation BDC-10.1 (upregulation of CD69): + (A positive response (+) indicates >40% of the hybridoma population stained above a background staining of 1% for unstimulated or of the same T cell hybridoma)
[2]
  Stimulation BDC-5.1.3 (upregulation of CD69): + (A positive response (+) indicates >40% of the hybridoma population stained above a background staining of 1% for unstimulated or of the same T cell hybridoma)

## SRLYLWVRME
[1]
  Stimulation BDC-10.1 (upregulation of CD69): + (A positive response (+) indicates >40% of the hybridoma population stained above a background staining of 1% for unstimulated or of the same T cell hybridoma)
[2]
  Stimulation BDC-5.1.3 (upregulation of CD69): + (A positive response (+) indicates >40% of the hybridoma population stained above a background staining of 1% for unstimulated or of the same T cell hybridoma)

## WL11: WE14 truncated by 3 C-terminal amino acids (WSRMDQLAKEL)
T cell clone BDC-2.5
  Stimulation of T cell clone BDC-2.5 (IFNγ response), result in words: decreasing stimulatory activity
Soluble IA^g7
  IA^g7 binding, result in words: indistinguishable from the negative control peptide

## SRLRLWVRME
BDC-2.5 T cell hybridoma
  Stimulation BDC-2.5 (upregulation of CD69): + (A positive response (+) indicates >40% of the hybridoma population stained above a background staining of 1% for unstimulated or of the same T cell hybridoma)
[1]
  Stimulation BDC-10.1 (upregulation of CD69): + (A positive response (+) indicates >40% of the hybridoma population stained above a background staining of 1% for unstimulated or of the same T cell hybridoma)
[2]
  Stimulation BDC-5.1.3 (upregulation of CD69): + (A positive response (+) indicates >40% of the hybridoma population stained above a background staining of 1% for unstimulated or of the same T cell hybridoma)

## SRLPLWVRME
BDC-2.5 T cell hybridoma
  Stimulation BDC-2.5 (upregulation of CD69): + (A positive response (+) indicates >40% of the hybridoma population stained above a background staining of 1% for unstimulated or of the same T cell hybridoma)
[1]
  Stimulation BDC-10.1 (upregulation of CD69): + (A positive response (+) indicates >40% of the hybridoma population stained above a background staining of 1% for unstimulated or of the same T cell hybridoma)
[2]
  Stimulation BDC-5.1.3 (upregulation of CD69): + (A positive response (+) indicates >40% of the hybridoma population stained above a background staining of 1% for unstimulated or of the same T cell hybridoma)

## SRLHLWVRME
[1]
  Stimulation BDC-10.1 (upregulation of CD69): + (A positive response (+) indicates >40% of the hybridoma population stained above a background staining of 1% for unstimulated or of the same T cell hybridoma)
[2]
  Stimulation BDC-5.1.3 (upregulation of CD69): + (A positive response (+) indicates >40% of the hybridoma population stained above a background staining of 1% for unstimulated or of the same T cell hybridoma)

## SRLMLWVRME
[1]
  Stimulation BDC-10.1 (upregulation of CD69): + (A positive response (+) indicates >40% of the hybridoma population stained above a background staining of 1% for unstimulated or of the same T cell hybridoma)
[2]
  Stimulation BDC-5.1.3 (upregulation of CD69): + (A positive response (+) indicates >40% of the hybridoma population stained above a background staining of 1% for unstimulated or of the same T cell hybridoma)

## SRFGLWVRME
BDC-2.5 T cell hybridoma
  Stimulation BDC-2.5 (upregulation of CD69): + (A positive response (+) indicates >40% of the hybridoma population stained above a background staining of 1% for unstimulated or of the same T cell hybridoma)
[1]
  Stimulation BDC-10.1 (upregulation of CD69): + (A positive response (+) indicates >40% of the hybridoma population stained above a background staining of 1% for unstimulated or of the same T cell hybridoma)

## QWEDKRWSRMDQA
T cell clone BDC-2.5
  Stimulation of T cell clone BDC-2.5 (IFNγ response), result in words: unable to stimulate
